Patent publication US20250346633A1, “MACOLACINS AND METHODS OF USE THEREOF” (priority 2021, published 2025)
In brackets after ≈: the same amount, converted by molar mass. Read-outs that look alike come from different tables or passages of the source. Bridge positions count the residues as written; N and C are the ends. Square brackets hold non-standard residues; d marks the D form. Peptide text beside a SMILES is read from it. * marks the point of attachment. Benzoyl(4-Ph) = O=C(c1ccc(-c2ccccc2)cc1)*; X1 = CC[C@H](C)CCCCC(=O)*; Dab = NCC[C@H](N)C(=O)O

Experiments:
[1] = tested on: A. baumannii SM1536 (pMQ124xlab1-mcr-1)
[2] = tested on: K. pneumoniae and A. baumannii transformed with a plasmid expressing mcr-1; type: cell-based, Klebsiella pneumoniae; Acinetobacter baumannii
[3] = tested on: K. pneumoniae and A. baumannii; assay: MIC upon addition of cell wall components (lipid A, LPS) to the media; type: cell-based, Klebsiella pneumoniae; Acinetobacter baumannii; details: FIG. 3C; n=2
[4] = tested on: E. cloacae ATCC13047 (ΔphoP/Q + phoP/Q); details: colistin R
Experimental: (§1) MIC assays were conducted following the protocol recommended by the Clinical and Laboratory Standards Institute (Testing E C et al., 2016, EUCAST: Växjö; Wikler M A et al., 2006, CLSI (NCCLS), 26: M7-A7). […] Polymyxin B sulfate (Sigma, USA) and colistin sulfate (Sigma, USA) were used as positive controls. […] The top and bottom rows of each plate were filled with 100 μL of LB broth without compound to avoid edge effects. The last well in each row was treated as a negative control. It contained bacteria but no test compounds. A single colony of each assayed bacterial strain was inoculated into 5 mL of LB broth medium and grown overnight at 37° C. […] Saturated overnight cultures were diluted 5,000-fold in fresh LB, and then 50 μL was transferred into individual wells of a 96-well plate.

A. baumannii ATCC17978 [5] = assay: CHIR-090 inhibition assay (growth curves); type: cell-based, Acinetobacter baumannii; details: for A. baumannii growth: antibiotic alone at concentrations above MIC; for A. baumannii growth / A. baumannii growth with CHIR-090 included: 48 hours; for A. baumannii growth with CHIR-090 included: antibiotic plus CHIR-090
Gram−positive pathogens = assay: MIC against ESKAPE pathogens; type: cell-based; details: highest concentration tested 128 μg/mL
[6] = tested on: A. baumannii ATCC17978 (pMQ124xlab1-mcr-1)
[7] = tested on: A. baumannii 0301 with mcr-1; details: colistin R
[8] = tested on: CRAB, as well as a panel of XDR A. baumannii clinical isolates; details: CRAB and XDR A. baumannii clinical isolates, even when transformed with mcr-1
Experimental: MIC assays were conducted following the protocol recommended by the Clinical and Laboratory Standards Institute (Testing E C et al., 2016, EUCAST: Växjö; Wikler M A et al., 2006, CLSI (NCCLS), 26: M7-A7). […] Polymyxin B sulfate (Sigma, USA) and colistin sulfate (Sigma, USA) were used as positive controls. […] The top and bottom rows of each plate were filled with 100 μL of LB broth without compound to avoid edge effects. The last well in each row was treated as a negative control. It contained bacteria but no test compounds. A single colony of each assayed bacterial strain was inoculated into 5 mL of LB broth medium and grown overnight at 37° C. (200 rpm). For assays using bacteria containing mcr-1 expression plasmids, the appropriate selection antibiotic was added to keep the plasmid stable (concentrations are listed in Table 5). Saturated overnight cultures were diluted 5,000-fold in fresh LB, and then 50 μL was transferred into individual wells of a 96-well plate.

[9] = mouse, in vivo, sc, 10 mg/kg
Experimental: (§2) Six-week old CD-1 female mice (20-25 g) were used in pharmacokinetic studies. […] Aliquots of 20 μL of blood were taken by puncture of the lateral tail vein from each mouse (n=2 per route and dose) at 30 minutes, 1, 3, and 5 hours post-dose and captured in CB300 blood collection tubes containing K2EDTA and stored on ice. Plasma was recovered after centrifugation and stored at −80° C. until analyzed by high pressure liquid chromatography coupled to tandem mass spectrometry. […] Standards and QCs were created by adding 10 μL of spiking solutions to 90 μL of drug free plasma (CD-1 K2EDTA Mouse, Bioreclamation IVT). 10 μL of control, standard, QC, or study samples were added to 10 μL of internal standard. […] The compounds were extracted by adding 100 μL of 50% Methanol/50% (10% Trichloroacetic acid in water) precipitation solvent. Extracts were vortexed for 5 minutes and centrifuged at 4,000 rpm for 5 minutes. 75 μL of supernatant was transferred for HPLC-MS/MS analysis and diluted with 75 μL of Milli-Q deionized water. LC-MS/MS analysis was performed on a Sciex Applied Biosystems Qtrap 6500+triple-quadrupole mass spectrometer coupled to a Shimadzu Nexera×2 UHPLC system to quantify each drug in plasma. […] Multiple-reaction monitoring of parent/daughter transitions in electrospray positive-ionization mode was used to quantify the analytes. […]

S. aureus SH1000 = details: colistin R, n=2
A. baumannii 0286 = details: mcr-1 −, colistin S
[10] = Pharmacokinetics assessment; details: mice; single subcutaneous dose of 10 mg/kg; FIG. 9
Experimental: as §2

K. pneumoniae 10031 = details: colistin S, n=2
K. pneumoniae ATCC13883 = details: colistin S, mcr-1 engineered pair
[11] = tested on: S. typhimurium 0635 (mcr-1 clinical isolate); details: colistin R
A. baumannii 0295 = details: mcr-1 −, colistin S
A. baumannii ATCC17978 [12] = tested on: A. baumannii ATCC17978
P. aeruginosa PA01 = details: colistin S, n=2
MTT cytotoxicity assay = type: cell-based; details: HEK293, human cells
Experimental: Compounds with different concentrations were then added into each well. After 48 h of incubation, the media was removed and MTT solution (0.45 mg/mL) was added into each well. After 3 h of incubation, the solution was aspirated. […] The absorbance of each well was measured at OD570nm using a microplate reader (Epoch Microplate Spectrophotometer, BioTek). Taxol was used as the positive control. […] All the experiments were performed triplicates (n=3).

[13] = tested on: K. pneumoniae ATCC13883 (pMQ124-mcr-1)
[14] = tested on: E. cloacae ATCC13047 (ΔphoP/Q)
Experimental: as §1

A. baumannii 0282 = details: mcr-1 −, colistin S
[15] = tested on: K. pneumoniae 0497 (mcr-1 clinical isolate); details: colistin R
[16] = tested on: A. baumannii 0295 with mcr-1; details: colistin R
E. cloacae 0150 = details: colistin S, n=2
A. baumannii SM1536 = details: colistin S
[17] = tested on: A. baumannii SM1536-(mcr-1); assay: Neutropenic thigh infection model; type: in vivo, Acinetobacter baumannii; details: neutropenic mouse thigh, 20 mg/kg SC at 6 hour intervals, 24 h
Experimental: (§3) After 24 hours the bacterial burden in each infected thigh was determined based on colony forming units (CFUs) that arose from homogenized tissue samples.
(§4) Six-week old female outbred Swiss Webster mice (20-25 g) were used for this experiment. Mice were housed in individually ventilated cages (IVC) and maintained in accordance with American Association for Accreditation of Laboratory Care criteria. Acinetobacter baumannii SM1536-(mcr-1) or A. baumannii-0301-(mcr-1) was grown in cation adjusted Mueller Hinton (MH) broth containing 50 μg/mL of gentamycin at 37° C. with shaking overnight. The cultures were centrifuged, supernatant aspirated and the bacteria were gently washed twice in sterile saline. […] All mice were closely monitored post-infection for morbidity. Any abnormal clinical signs were recorded if observed. […] The treatment efficacy was determined both as the bacterial burden reduction in the thighs relative to the vehicle and colistin treated controls. All graphic data are expressed as columnar average data points by group and were statistically analyzed using computer Prism software (Prism 9). Burden differences between testing and control groups was assessed by post-hoc analysis, using the Mann-Whitney comparison test. […]

[18] = tested on: A. baumannii-0301-(mcr-1); assay: Neutropenic thigh infection model; type: in vivo, Acinetobacter baumannii; details: neutropenic mouse thigh, 20 mg/kg SC at 6 hour intervals, 24 h
Experimental: as §3, §4

[19] = tested on: A. baumannii 0287 with mcr-1; details: colistin R
A. baumannii 0287 = details: mcr-1 −, colistin S
A. baumannii 0296 = details: mcr-1 −, colistin S
E. faecium Com15 = details: colistin R, n=2
[20] = extremely highly colistin resistant A. baumannii
[21] = A. baumannii SM1536 (pMQ124xlab1-mcr-1), colistin R
[22] = A. baumannii ATCC17978, colistin S, mcr-1 engineered pair

Compound	MIC [1, 20]	change of MIC on addition of lipid A or lipopolysaccharide (LPS) to the assay media [3]	Antibiotic MIC (A. baumannii 0301; 0301)	MIC [4]	A. baumannii growth (A. baumannii ATCC17978 [5])	A. baumannii growth with CHIR-090 included (A. baumannii ATCC17978 [5])	MIC [6]	Antibiotic MIC [7]	MIC (S. aureus SH1000)	MIC (K. pneumoniae 10031)	MIC [1, 21]	MIC (K. pneumoniae ATCC13883)	MIC [11]	MIC (A. baumannii ATCC17978 [12]; [22])	MIC (P. aeruginosa PA01)	MIC [14]	MIC [15]	MIC (E. cloacae 0150)	MIC (A. baumannii SM1536)	MIC (E. faecium Com15)	also measured
CC[C@H](C)CCCCC(=O)N[C@@H](CCN)C(=O)N[C@H](C(=O)N[C@H](CO)C(=O)N[C@H]1CCNC(=O)[C@H](CC(C)C)NC(=O)[C@H](CCN)NC(=O)[C@H](CCN)NC(=O)[C@H]([C@@H](C)CC)NC(=O)[C@@H](CC(C)C)NC(=O)[C@H](CCN)NC1=O)[C@@H](C)O [Macolacin] (X1-[Dab]T[dS][Dab][Dab][dL]I[Dab][Dab]L; lactam 4-C)	8 µg/mL (≈ 6.85 µM)	significant increase	0.5 µg/mL	2 µg/mL (≈ 1.71 µM)	completely abrogated A. baumannii growth	rescued A. baumannii growth	2 µg/mL (≈ 1.71 µM)	–	–	–	–	–	–	–	–	–	–	–	–	–	increase in MIC upon mcr-1 expression [2]: 2- to 4 fold; activity against Gram−positive pathogens (Gram−positive pathogens): no activity
CC[C@H](C)[C@@H]1NC(=O)[C@@H](CC(C)C)NC(=O)[C@H](CCN)NC(=O)[C@@H](NC(=O)[C@@H](CO)NC(=O)[C@@H](NC(=O)[C@H](CCN)NC(=O)c2ccc(-c3ccccc3)cc2)[C@@H](C)O)CCNC(=O)[C@H](CC(C)C)NC(=O)[C@H](CCN)NC(=O)[C@H](CCN)NC1=O [Biphenyl-macolacin] ({Benzoyl(4-Ph)}-[Dab]T[dS][Dab][Dab][dL]I[Dab][Dab]L; lactam 4-C)	–	–	0.5 µg/mL	–	–	–	–	1 µg/mL	–	–	–	–	–	–	–	–	–	–	–	–	MIC (Proteus vulgaris): 4 µg/mL (≈ 3.31 µM); Antibiotic MIC ([7]; listed as biphenyl-macolacin): < 2 µg/mL; MICs [8]: < 2 µg/mL; plasma drug exposure (pharmacokinetic profile) [9]: parity in plasma drug exposure
CC[C@H](C)CCCCC(=O)N[C@@H](CCN)C(=O)N[C@H](C(=O)N[C@@H](CCN)C(=O)N[C@H]1CCNC(=O)[C@H]([C@@H](C)O)NC(=O)[C@H](CCN)NC(=O)[C@H](CCN)NC(=O)[C@H](CC(C)C)NC(=O)[C@@H](CC(C)C)NC(=O)[C@H](CCN)NC1=O)[C@@H](C)O [Colistin, colistin] (X1-[Dab]T[Dab][Dab][Dab][dL]L[Dab][Dab]T; lactam 4-C)	> 128 µg/mL	significant increase	–	32 µg/mL (≈ 27.4 µM)	completely abrogated A. baumannii growth	rescued A. baumannii growth	–	>128 µg/mL	>128 µg/mL	0.5 µg/mL (≈ 0.428 µM)	128 µg/mL (≈ 109 µM)	1 µg/mL (≈ 0.855 µM)	16 µg/mL (≈ 13.7 µM)	1 µg/mL (≈ 0.855 µM)	1 µg/mL (≈ 0.855 µM)	1 µg/mL (≈ 0.855 µM)	32 µg/mL (≈ 27.4 µM)	1 µg/mL (≈ 0.855 µM)	0.5 µg/mL (≈ 0.428 µM)	>128 µg/mL	Antibiotic MIC (A. baumannii 0286): 1 µg/mL; plasma drug exposure (pharmacokinetic profile) [10]: parity in plasma drug exposure; Antibiotic MIC (A. baumannii 0301; A. baumannii 0301, mcr-1 −, colistin S): 0.25 µg/mL; Antibiotic MIC (A. baumannii 0295): 0.25 µg/mL; IC50 at 48 h (MTT cytotoxicity assay): > 512 µg/mL; MIC ([13]; ATCC13883): 64 µg/mL (≈ 54.7 µM); Antibiotic MIC ([7]; listed as colistin): > 64 µg/mL; Antibiotic MIC (A. baumannii 0282): 0.5 µg/mL; MIC ([4]; listed as colistin): resistant; Antibiotic MIC [16]: >128 µg/mL; bacterial burden in infected thighs [17]: did not reduce the bacterial burden below the level of the initial infection; bacterial burden in infected thighs [18]: did not reduce the bacterial burden below the level of the initial infection; MIC ([6]; ATCC17978): 32 µg/mL (≈ 27.4 µM); Antibiotic MIC [19]: 64 µg/mL; Antibiotic MIC (A. baumannii 0287): 0.5 µg/mL; Antibiotic MIC (A. baumannii 0296): 0.25 µg/mL
Polymyxin B	–	–	–	32 µg/mL	–	–	16 µg/mL	–	>128 µg/mL	1 µg/mL	128 µg/mL	1 µg/mL	16 µg/mL	0.5 µg/mL	2 µg/mL	1 µg/mL	32 µg/mL	1 µg/mL	1 µg/mL	>128 µg/mL	MIC (A. baumannii ATCC17978 [12]): 0.5 µg/mL; MIC [13]: 128 µg/mL; MIC ([4]; listed as polymyxin B): resistant
C[C@@H](O)[C@H](NC(=O)c1ccc(C#Cc2ccc(CN3CCOCC3)cc2)cc1)C(=O)NO [CHIR-090]	–	–	–	–	–	–	–	–	–	–	–	–	–	–	–	–	–	–	–	–	A. baumannii growth, CHIR-090 alone (A. baumannii ATCC17978 [5]; CHIR-090 alone): did not inhibit A. baumannii growth
